Laboratory results reported in patent publication US7846959B2, “Raf modulators and methods of use” (Exelixis, Inc., priority 2004, dated 2010).

Experiments:
c-Raf = c-Raf (Homo sapiens, UniProt P04049); assay: Luciferase-coupled chemiluminescence kinase assay (ATP consumption), c-Raf; type: biochemical; conditions: read-out: cRaf-1 IC50
How it was run: (§1)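 ATP depletion, limited to 25-60%, read by luciferase-luciferin chemiluminescence gives IC50 values. Before the 3 hr ambient-temperature kinase reaction with ATP, compound and […] enzyme were preincubated 30 minutes at room temperature in Tris pH 7.5 buffer with MgCl2, TX-100 and DTT.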

B-Raf = B-Raf (Homo sapiens, UniProt P15056); assay: Luciferase-coupled chemiluminescence kinase assay (ATP consumption), B-Raf; type: biochemical; conditions: read-out: bRaf IC50
How it was run: as §1

Chain of B-Raf (P15056 whole entry): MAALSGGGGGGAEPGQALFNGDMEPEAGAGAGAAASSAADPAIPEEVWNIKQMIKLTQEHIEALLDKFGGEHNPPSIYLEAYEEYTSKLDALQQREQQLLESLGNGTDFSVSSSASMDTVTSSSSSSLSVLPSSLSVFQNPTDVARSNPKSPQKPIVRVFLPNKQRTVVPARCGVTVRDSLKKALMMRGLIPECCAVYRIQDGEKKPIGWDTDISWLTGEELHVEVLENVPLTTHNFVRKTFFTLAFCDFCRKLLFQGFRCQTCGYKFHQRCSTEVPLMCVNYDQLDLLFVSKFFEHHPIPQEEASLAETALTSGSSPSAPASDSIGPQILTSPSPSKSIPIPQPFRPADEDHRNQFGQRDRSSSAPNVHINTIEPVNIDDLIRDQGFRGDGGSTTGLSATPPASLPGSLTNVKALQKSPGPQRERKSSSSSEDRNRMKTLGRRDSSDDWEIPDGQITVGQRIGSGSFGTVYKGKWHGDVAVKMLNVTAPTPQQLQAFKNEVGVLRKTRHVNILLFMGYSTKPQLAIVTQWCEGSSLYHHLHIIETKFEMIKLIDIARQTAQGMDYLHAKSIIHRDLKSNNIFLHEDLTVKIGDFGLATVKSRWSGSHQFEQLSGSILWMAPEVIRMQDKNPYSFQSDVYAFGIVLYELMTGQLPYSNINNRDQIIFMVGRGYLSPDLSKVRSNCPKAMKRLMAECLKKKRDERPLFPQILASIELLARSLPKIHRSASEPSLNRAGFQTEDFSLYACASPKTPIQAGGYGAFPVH
Chain of c-Raf (P04049 whole entry): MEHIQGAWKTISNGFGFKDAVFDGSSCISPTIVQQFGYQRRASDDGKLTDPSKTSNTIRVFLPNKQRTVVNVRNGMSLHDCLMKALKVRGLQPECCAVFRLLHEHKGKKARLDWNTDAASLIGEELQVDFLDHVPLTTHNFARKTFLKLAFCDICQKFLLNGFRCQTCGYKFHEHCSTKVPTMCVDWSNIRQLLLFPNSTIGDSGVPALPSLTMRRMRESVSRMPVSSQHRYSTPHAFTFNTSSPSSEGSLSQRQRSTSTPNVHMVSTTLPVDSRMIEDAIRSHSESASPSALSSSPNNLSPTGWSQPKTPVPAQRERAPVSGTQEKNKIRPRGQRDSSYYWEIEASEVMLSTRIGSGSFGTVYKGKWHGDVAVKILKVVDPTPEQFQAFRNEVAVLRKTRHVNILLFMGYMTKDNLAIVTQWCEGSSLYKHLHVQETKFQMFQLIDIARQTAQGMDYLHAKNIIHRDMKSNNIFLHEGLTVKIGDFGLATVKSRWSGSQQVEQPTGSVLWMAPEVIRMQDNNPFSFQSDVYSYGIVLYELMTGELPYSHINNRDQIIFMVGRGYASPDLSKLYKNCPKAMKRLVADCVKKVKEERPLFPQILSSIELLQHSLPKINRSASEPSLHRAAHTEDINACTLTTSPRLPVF

Row | IC50 (c-Raf) | IC50 (B-Raf) | SMILES
1 | < 100 nM | < 100 nM | CC(C)OC(=O)Nc1nc2cc(C3(O)c4ccccc4C(=O)N3Cc3ccccc3)ccc2[nH]1 (stereo not drawn) [Entry 110, 1-methylethyl {5-[1-hydroxy-3-oxo-2-(phenylmethyl)-2,3-dihydro-1H-isoindol-1-yl]-1H-benzimidazol-2-yl}carbamate]
2 | ≥ 10000 nM | ≥ 10000 nM | COC(=O)Nc1nc2cc(C3(O)c4ccccc4C(=O)N3C3Cc4ccccc4C3)ccc2[nH]1 (stereo not drawn) [Entry 111, methyl {5-[2-(2,3-dihydro-1H-inden-2-yl)-1-hydroxy-3-oxo-2,3-dihydro-1H-isoindol-1-yl]-1H-benzimidazol-2-yl}carbamate]
3 | 1000 to 10000 nM | ≥ 10000 nM | COC(=O)Nc1nc2cc(C3(O)c4ccccc4C(=O)N3Cc3ccncc3)ccc2[nH]1 (stereo not drawn) [Entry 112, methyl {5-[1-hydroxy-3-oxo-2-(pyridin-4-ylmethyl)-2,3-dihydro-1H-isoindol-1-yl]-1H-benzimidazol-2-yl}carbamate]
4 | 100 to 1000 nM | 100 to 1000 nM | COC(=O)Nc1nc2cc(C3(O)c4ccccc4C(=O)N3Cc3cccnc3)ccc2[nH]1 (stereo not drawn) [Entry 113, methyl {5-[1-hydroxy-3-oxo-2-(pyridin-3-ylmethyl)-2,3-dihydro-1H-isoindol-1-yl]-1H-benzimidazol-2-yl}carbamate]
5 | < 100 nM | < 100 nM | COC(=O)Nc1nc2ccc(C3(O)c4ccccc4C(=O)N3Cc3cccc(F)c3)cc2[nH]1 (stereo not drawn) [Entry 114, methyl (6-{2-[(3-fluorophenyl)methyl]-1-hydroxy-3-oxo-2,3-dihydro-1H-isoindol-1-yl}-1H-benzimidazol-2-yl)carbamate]
6 | < 100 nM | < 100 nM | COC(=O)Nc1nc2cc(C3(O)c4ccccc4C(=O)N3c3cccc(C)c3)ccc2[nH]1 (stereo not drawn) [Entry 115, methyl {5-[1-hydroxy-2-(3-methylphenyl)-3-oxo-2,3-dihydro-1H-isoindol-1-yl]-1H-benzimidazol-2-yl}carbamate]
7 | 1000 to 10000 nM | 1000 to 10000 nM | COC(=O)Nc1nc2cc(C3(O)c4ccccc4C(=O)N3Cc3ccccc3OC)ccc2[nH]1 (stereo not drawn) [Entry 116, methyl [5-(1-hydroxy-2-{[2-(methyloxy)phenyl]methyl}-3-oxo-2,3-dihydro-1H-isoindol-1-yl)-1H-benzimidazol-2-yl]carbamate]
8 | 100 to 1000 nM | 100 to 1000 nM | COC(=O)Nc1nc2cc(C3(O)c4ccccc4C(=O)N3Cc3cccc(OC)c3)ccc2[nH]1 (stereo not drawn) [Entry 117, methyl [5-(1-hydroxy-2-{[3-(methyloxy)phenyl]methyl}-3-oxo-2,3-dihydro-1H-isoindol-1-yl)-1H-benzimidazol-2-yl]carbamate]
9 | ≥ 10000 nM | ≥ 10000 nM | COC(=O)Nc1nc2cc(C3(O)c4ccccc4C(=O)N3Cc3ccc(OC)cc3)ccc2[nH]1 (stereo not drawn) [Entry 118, methyl [5-(1-hydroxy-2-{[4-(methyloxy)phenyl]methyl}-3-oxo-2,3-dihydro-1H-isoindol-1-yl)-1H-benzimidazol-2-yl]carbamate]
10 | 100 to 1000 nM | 100 to 1000 nM | COC(=O)Nc1nc2ccc(C3(O)c4ccccc4C(=O)N3Cc3ccc(F)cc3)cc2[nH]1 (stereo not drawn) [Entry 119, methyl (6-{2-[(4-fluorophenyl)methyl]-1-hydroxy-3-oxo-2,3-dihydro-1H-isoindol-1-yl}-1H-benzimidazol-2-yl)carbamate]
11 | < 100 nM | < 100 nM | COC(=O)Nc1nc2ccc(C3(O)c4ccccc4C(=O)N3Cc3cccc(Br)c3)cc2[nH]1 (stereo not drawn) [Entry 120, methyl (6-{2-[(3-bromophenyl)methyl]-1-hydroxy-3-oxo-2,3-dihydro-1H-isoindol-1-yl}-1H-benzimidazol-2-yl)carbamate]
12 | 100 to 1000 nM | 100 to 1000 nM | COC(=O)Nc1nc2cc(C3(O)c4ccccc4C(=O)N3Cc3cccc(I)c3)ccc2[nH]1 (stereo not drawn) [Entry 121, methyl (5-{1-hydroxy-2-[(3-iodophenyl)methyl]-3-oxo-2,3-dihydro-1H-isoindol-1-yl}-1H-benzimidazol-2-yl)carbamate]
13 | < 100 nM | < 100 nM | COC(=O)Nc1nc2cc(C3(O)c4ccccc4C(=O)N3Cc3cccc(Cl)c3)ccc2[nH]1 (stereo not drawn) [Entry 122, methyl (5-{2-[(3-chlorophenyl)methyl]-1-hydroxy-3-oxo-2,3-dihydro-1H-isoindol-1-yl}-1H-benzimidazol-2-yl)carbamate]
14 | < 100 nM | < 100 nM | COC(=O)Nc1nc2cc(C3(O)c4ccccc4C(=O)N3Cc3ccccc3F)ccc2[nH]1 (stereo not drawn) [Entry 123, methyl (5-{2-[(2-fluorophenyl)methyl]-1-hydroxy-3-oxo-2,3-dihydro-1H-isoindol-1-yl}-1H-benzimidazol-2-yl)carbamate]
15 | 100 to 1000 nM | 100 to 1000 nM | COC(=O)Nc1nc2cc(C3(O)c4ccccc4C(=O)N3Cc3ccccn3)ccc2[nH]1 (stereo not drawn) [Entry 124, methyl {5-[1-hydroxy-3-oxo-2-(pyridin-2-ylmethyl)-2,3-dihydro-1H-isoindol-1-yl]-1H-benzimidazol-2-yl}carbamate]
16 | < 100 nM | < 100 nM | O=C(Nc1nc2cc(C3(O)c4ccccc4C(=O)N3Cc3ccccc3)ccc2[nH]1)OCc1ccccc1 (stereo not drawn) [Entry 125, phenylmethyl {5-[1-hydroxy-3-oxo-2-(phenylmethyl)-2,3-dihydro-1H-isoindol-1-yl]-1H-benzimidazol-2-yl}carbamate]
17 | < 100 nM | < 100 nM | O=C(Nc1nc2cc(C3(O)c4ccccc4C(=O)N3Cc3ccccc3)ccc2[nH]1)OCCF (stereo not drawn) [Entry 126, 2-fluoroethyl {5-[1-hydroxy-3-oxo-2-(phenylmethyl)-2,3-dihydro-1H-isoindol-1-yl]-1H-benzimidazol-2-yl}carbamate]
18 | < 100 nM | < 100 nM | CCCOC(=O)Nc1nc2cc(C3(O)c4ccccc4C(=O)N3Cc3ccccc3)ccc2[nH]1 (stereo not drawn) [Entry 127, propyl {5-[1-hydroxy-3-oxo-2-(phenylmethyl)-2,3-dihydro-1H-isoindol-1-yl]-1H-benzimidazol-2-yl}carbamate]
19 | 1000 to 10000 nM | 1000 to 10000 nM | COC(=O)Nc1nc2cc(C3(O)c4ccccc4C(=O)N3c3ccc(OC)cc3)ccc2[nH]1 (stereo not drawn) [Entry 128, methyl (5-{1-hydroxy-2-[4-(methyloxy)phenyl]-3-oxo-2,3-dihydro-1H-isoindol-1-yl}-1H-benzimidazol-2-yl)carbamate]
20 | < 100 nM | 100 to 1000 nM | COC(=O)Nc1nc2cc(C3(O)c4ccccc4C(=O)N3Cc3ccccc3Cl)ccc2[nH]1 (stereo not drawn) [Entry 129, methyl (5-{2-[(2-chlorophenyl)methyl]-1-hydroxy-3-oxo-2,3-dihydro-1H-isoindol-1-yl}-1H-benzimidazol-2-yl)carbamate]
21 | 100 to 1000 nM | 100 to 1000 nM | COC(=O)Nc1nc2cc(C3(O)c4ccccc4C(=O)N3Cc3ccccc3Br)ccc2[nH]1 (stereo not drawn) [Entry 130, methyl (5-{2-[(2-bromophenyl)methyl]-1-hydroxy-3-oxo-2,3-dihydro-1H-isoindol-1-yl}-1H-benzimidazol-2-yl)carbamate]
22 | < 100 nM | < 100 nM | COC(=O)Nc1nc2cc(C3(O)c4ccccc4C(=O)N3Cc3cccc(C)c3)ccc2[nH]1 (stereo not drawn) [Entry 131, methyl (5-{1-hydroxy-2-[(3-methylphenyl)methyl]-3-oxo-2,3-dihydro-1H-isoindol-1-yl}-1H-benzimidazol-2-yl)carbamate]
23 | 100 to 1000 nM | 1000 to 10000 nM | COC(=O)Nc1nc2cc(C3(O)c4ccccc4C(=O)N3Cc3ccc(C)cc3)ccc2[nH]1 (stereo not drawn) [Entry 132, methyl (5-{1-hydroxy-2-[(4-methylphenyl)methyl]-3-oxo-2,3-dihydro-1H-isoindol-1-yl}-1H-benzimidazol-2-yl)carbamate]
24 | < 100 nM | < 100 nM | COC(=O)Nc1nc2cc(C3(O)c4ccccc4C(=O)N3Cc3ccccc3C)ccc2[nH]1 (stereo not drawn) [Entry 133, methyl (5-{1-hydroxy-2-[(2-methylphenyl)methyl]-3-oxo-2,3-dihydro-1H-isoindol-1-yl}-1H-benzimidazol-2-yl)carbamate]
25 | < 100 nM | < 100 nM | COC(=O)Nc1nc2cc(C3(O)c4ccccc4C(=O)N3c3cccc(Br)c3)ccc2[nH]1 (stereo not drawn) [Entry 134, methyl {5-[2-(3-bromophenyl)-1-hydroxy-3-oxo-2,3-dihydro-1H-isoindol-1-yl]-1H-benzimidazol-2-yl}carbamate]
26 | < 100 nM | < 100 nM | COC(=O)Nc1nc2cc(C3(O)c4ccccc4C(=O)N3c3cccc(Cl)c3)ccc2[nH]1 (stereo not drawn) [Entry 135, methyl {5-[2-(3-chlorophenyl)-1-hydroxy-3-oxo-2,3-dihydro-1H-isoindol-1-yl]-1H-benzimidazol-2-yl}carbamate]
27 | < 100 nM | < 100 nM | COC(=O)Nc1nc2cc(C3(O)c4ccccc4C(=O)N3c3cccc(F)c3)ccc2[nH]1 (stereo not drawn) [Entry 136, methyl {5-[2-(3-fluorophenyl)-1-hydroxy-3-oxo-2,3-dihydro-1H-isoindol-1-yl]-1H-benzimidazol-2-yl}carbamate]
28 | < 100 nM | < 100 nM | COC(=O)Nc1nc2cc(C3(O)c4ccccc4C(=O)N3c3cccc(OC)c3)ccc2[nH]1 (stereo not drawn) [Entry 137, methyl (5-{1-hydroxy-2-[3-(methyloxy)phenyl]-3-oxo-2,3-dihydro-1H-isoindol-1-yl}-1H-benzimidazol-2-yl)carbamate]
29 | 100 to 1000 nM | 100 to 1000 nM | COC(=O)Nc1nc2cc(C3(O)c4ccccc4C(=O)N3c3ccc(Br)cc3)ccc2[nH]1 (stereo not drawn) [Entry 138, methyl {5-[2-(4-bromophenyl)-1-hydroxy-3-oxo-2,3-dihydro-1H-isoindol-1-yl]-1H-benzimidazol-2-yl}carbamate]
30 | < 100 nM | < 100 nM | COC(=O)Nc1nc2cc(C3(O)c4ccccc4C(=O)N3c3ccc(Cl)cc3)ccc2[nH]1 (stereo not drawn) [Entry 139, methyl {5-[2-(4-chlorophenyl)-1-hydroxy-3-oxo-2,3-dihydro-1H-isoindol-1-yl]-1H-benzimidazol-2-yl}carbamate]
